# Data from US6559157B2, “Dihydronaphthalene compounds” (Daiichi Pharmaceutical Co., Ltd., priority 1997, dated 2003).
# Biological target: T1, Aromatase (Homo sapiens, UniProt P11511)
# T1 construct: Aromatase was prepared from the microsome fraction of human placenta tissue; from tissue; host or cells: human placenta (microsome fraction)
# T1 sequence (P11511 1-503): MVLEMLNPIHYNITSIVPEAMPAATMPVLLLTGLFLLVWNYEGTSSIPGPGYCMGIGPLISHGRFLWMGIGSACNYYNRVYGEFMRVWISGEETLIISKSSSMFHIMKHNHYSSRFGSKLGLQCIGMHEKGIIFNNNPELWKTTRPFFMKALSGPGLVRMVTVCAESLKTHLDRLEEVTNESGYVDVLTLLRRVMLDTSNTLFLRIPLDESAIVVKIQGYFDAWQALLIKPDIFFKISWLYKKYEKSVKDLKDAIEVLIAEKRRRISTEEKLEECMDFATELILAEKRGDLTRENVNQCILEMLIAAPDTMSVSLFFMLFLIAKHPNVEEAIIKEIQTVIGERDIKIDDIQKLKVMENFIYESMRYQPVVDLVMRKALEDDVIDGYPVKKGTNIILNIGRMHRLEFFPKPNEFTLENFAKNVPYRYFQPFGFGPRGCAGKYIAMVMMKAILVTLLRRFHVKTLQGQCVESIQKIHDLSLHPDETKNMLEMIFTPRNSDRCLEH
# Experiment: Aromatase inhibiting activity test, human placenta microsomes
# Assay type: biochemical
# Settings: inhibitor 25 μM, testosterone 2.5 μM, NADPH 250 μM
# Experimental: Measurement was done according to the method of Rolf W. Hartmann and Christine Batzl (J. Med. Chem., 29, 8, 1368, 1986).
# Aromatase was prepared from the microsome fraction of human placenta tissue according to the method of Thompson and Siiteri (J. Biol. Chem., 249, 5346, 1974). Microsomes obtained were suspended in a phosphate buffer solution (0.05 M, pH 7.4) and stored at −30° C.
# Enzyme activity was evaluated by measuring the amount of ^3H2O produced by [1β, 2β-^3H] testosterone during the reaction according to the methods of Foster A. B. et al. (Foster A. B. et al., J. Med. Chem., 26, 50, 1983) and Graves P. E. and Salhanick H. A. (Endocrinology, 105, 52, 1979) as follows. To a test tube containing 0.225 μCi of [1β, 2β-^3H]testosterone were added 5 μM unlabeled testosterone, 2 mM NADPH, 20 mM glucose-6-phosphate, 1EU of glucose-6-phosphate dehydrogenase, and a test compound (0-250 μM) dissolved in phosphate buffer (0.05 M, pH 7.4). The test compound was dissolved in ethanol and diluted with the phosphate buffer. The final ethanol concentration in a reaction solution of the control and the test compound was 2%. This test tube was preincubated in a water bath at 30° C. for 5 minutes. Next, 0.5 mg of the microsome enzyme was added to start the reaction. The total volume of the reaction solution was 0.5 ml. Water phase portions (100 μl) were taken 0, 7, 14, and 21 minutes after the start of the reaction and added to 200 μl of cold 1 mM HgCl2. To this were added 200 μl of a 2% dextran-treated activatd charcoal (DCC) suspension. The admixture was shaken for 20 minutes and then centrifuged at 1500× g for 5 minutes to isolate the steroid adsorbed on DCC. The amount of the produced ^3H2O in the fractionated supernatant was counted by a liquid scintillation counter. Control samples with no test compound were tested in the same manner. The inhibiting activity (%) was calculated from the measurement using calculation formula 1.
# Enzyme source: Human placenta microsomes
# Inhibitor concentration: 25 μM (inhibiting activity (%) was calculated)
# Substrate concentration: 2.5 μM (testosterone)
# NADPH concentration: 250 μM
row,SMILES,inhibition at 25 µM [%]
1,COc1ccc2c(c1)CCC(Cc1cccnc1)=C2C [Example 17],52
2,CC1=C(Cc2cccnc2)CCc2c(O)cccc21 [Example 23],60
3,CC1=C(Cc2cccnc2)CCc2cc(O)ccc21 [Example 24],37
4,CC1=C(Cc2cccnc2)CCc2ccccc21 [Example 15],56
5,COc1cccc2c1CCC(Cc1cccnc1)=C2C [Example 16],50
6,COc1ccc2c(c1)C(C)=C(Cc1cccnc1)CC2 [Example 18],61

# Same assay, conditions: testosterone 2.5 μM, NADPH 250 μM
row,SMILES,IC50 [nM]
1,CC1=C(Cc2ccncc2)CCc2ccccc21 [Example 19],230
2,COc1ccc2c(c1)C(C)=C(Cc1ccncc1)CC2 [Example 22],630
3,CCCC1=C(Cc2ccncc2)CCc2cc(OC)ccc21 [Example 44],860
4,CC1=C(Cc2ccncc2)CCc2cc(O)ccc21 [Example 27],1300
5,CC1=C(Cc2ccncc2)CCc2c(O)cccc21 [Example 26],700
6,CC1=C(Cc2cccnc2)CCc2ccc(O)cc21 [Example 25],6400
7,COc1ccc2c(c1)C=C(Cc1ccncc1)CC2 [Example 43],1700
8,COc1ccc2c(c1)CCC(Cc1ccncc1)=C2C [Example 21],650
9,COc1ccc2c(c1)CCC(Cc1c[nH]cn1)=C2 [Example 46],1800
10,CCC1=C(Cc2ccncc2)CCc2ccc(OC)cc21 [Example 39],1300
11,CCOc1ccc2c(c1)C(C)=C(Cc1c[nH]cn1)CC2 [Example 40],1200
12,CCC1=C(Cc2ccncc2)CCc2cc(OC)ccc21 [Example 38],790
13,COc1cccc2c1CCC(Cc1ccncc1)=C2C [Example 20],380
14,CC1=C(Cc2ccncc2)CCc2ccc(O)cc21 [Example 28],1200
15,CCC1=C(Cc2ccncc2)CCc2c(OC)cccc21 [Example 37],950
16,COc1cccc2c1CCC(Cc1ccncc1)=C2 [Example 41],950
17,Oc1ccc2c(c1)CCC(Cc1ccncc1)=C2 [Example 45],3500
18,COc1ccc2c(c1)CCC(Cc1ccncc1)=C2 [Example 42],790

# Tested on: Thromboxane A2 synthesis
# Experiment: Thromboxane A2 synthesis inhibiting activity test in citric acid-treated human whole blood
# Assay type: cell-based
# Settings: inhibitor 50 μM, collagen-stimulated
# Experimental: Measurement was done as follows according to the method of Rolf W. Hartmann et al. (Arch. Pharm. Pharm. Med. Chem., 329, 251, 1996). To 0.5 ml of citric acid-treated human whole blood were added 10 μl of an ethanol/K-Na-phosphate buffer solution (pH 7.4) containing a test compound, and the admixture was preincubated at 37° C. for 10 minutes. Dazoxybene hydrochloride (100 μM) was added to the blanks. Next, 50 μl of a collagen solution (final collagen concentration: 53.6 μg/ml) were added and incubation was continued at 37° C. for 10 minutes. The reaction was stopped by adding 0.4 ml of a 20% trichloroacetic acid solution in 0.6 M hydrochloric acid, and the admixture was centrifuged at 4400× g for 10 minutes. The resulting supernatant (0.5 ml) was fractionated and added to 0.5 ml of a 0.53% thiobarbituric acid solution (solvent: K-Na-phosphate buffer (pH 7.4)), and the admixture was heated for 70 minutes and then allowed to stand at room temperature for 30 minutes. This sample was measured by a fluorophotometer (excitation wave length: 533 nm, measurement wave length: 550 nm). Control samples without test compounds were tested in the same manner. The inhibiting activity (%) was calculated from the measurements using formula 1.
# Enzyme source: Citric acid-treated human whole blood
# Inhibitor concentration: 50 μM (inhibiting activity (%) was calculated)
# Substrate concentration: 25 μM (progesterone)
row,SMILES,inhibition at 50 µM [%]
1,CC1=C(Cc2ccncc2)CCc2ccccc21 [Example 19],25
2,COc1ccc2c(c1)CCC(Cc1ccncc1)=C2C [Example 21],43
3,COc1cccc2c1CCC(Cc1ccncc1)=C2C [Example 20],60

# Tested on: not given
# Experiment: not given
# Settings: not given
row,SMILES,melting point [°C]
1,CCOc1ccc2c(c1)C(C)=C(Cc1c[nH]cn1)CC2.Cl [Example 72],170.5 to 171.5
2,COc1ccc2c(c1)CCC(Cc1c[nH]cn1)=C2c1ccccc1 [Example 58],201.5 to 202.5
3,CCCC1=C(Cc2c[nH]cn2)CCc2c(OC)cccc21 [Example 57],174.5 to 175.5
4,COc1cccc2c1CCC(=Cc1c[nH]cn1)C2=O [Example 50],194 to 195
5,CC(C)COc1ccc2c(c1)CCC(Cc1c[nH]cn1)C2=O (centres unmarked) [Example 77],114.5 to 115
6,COc1cccc2c1CCC(Cc1c[nH]cn1)=C2C [Example 52],132.5 to 135
7,CCOc1ccc2c(c1)C(=O)C(Cc1c[nH]cn1)CC2 (centres unmarked) [Example 69],176.5 to 178.5
8,CCC1=C(Cc2c[nH]cn2)CCc2c(OC)cccc21.Cl [Example 55],164 to 166
9,COc1ccc2c(c1)CCC(Cc1c[nH]cn1)=C2Cc1ccccc1 [Example 61],122.5 to 123
10,CCOc1cccc2c1CCC(=Cc1c[nH]cn1)C2=O [Example 64],122 to 124
11,COc1cccc2c1CCC(Cc1c[nH]cn1)=C2c1ccccc1 [Example 60],200 to 202
12,CC1=C(Cc2c[nH]cn2)CCc2cc(OCC(C)C)ccc21 [Example 78],96 to 97
13,CCOc1ccc2c(c1)C(=O)C(=Cc1c[nH]cn1)CC2 [Example 68],139.5 to 141
14,CCOc1cccc2c1CCC(Cc1c[nH]cn1)=C2C [Example 70],133.5 to 136
15,CCOc1cccc2c1CCC(Cc1c[nH]cn1)C2=O (centres unmarked) [Example 65],132 to 134
16,CC(C)COc1ccc2c(c1)CCC(=Cc1c[nH]cn1)C2=O [Example 76],79 to 81.5
17,CCCC1=C(Cc2c[nH]cn2)CCc2cc(OC)ccc21 [Example 56],123.5 to 124.5
18,CCOc1ccc2c(c1)CCC(Cc1c[nH]cn1)=C2C [Example 71],126 to 127
19,COc1ccc2c(c1)C=C(Cc1c[nH]cn1)CC2 [Example 63],155.5 to 156.5
20,CCOc1ccc2c(c1)CCC(=Cc1c[nH]cn1)C2=O [Example 66],133.5 to 134.5
21,CCCOc1ccc2c(c1)CCC(=Cc1c[nH]cn1)C2=O [Example 73],156.5 to 158
22,COc1cccc2c1CCC(Cc1c[nH]cn1)=C2.Cl [Example 62],192.5 to 194.5
23,CCOc1ccc2c(c1)CCC(Cc1c[nH]cn1)C2=O (centres unmarked) [Example 67],143.5 to 144.5
24,CCCOc1ccc2c(c1)CCC(Cc1c[nH]cn1)C2=O (centres unmarked) [Example 74],134.5 to 136
25,COc1ccc2c(c1)C(c1ccccc1)=C(Cc1c[nH]cn1)CC2 [Example 59],198.5 to 199.5
26,CCCOc1ccc2c(c1)CCC(Cc1c[nH]cn1)=C2C [Example 75],91.5 to 92
27,COc1cccc2c1CCC(Cc1c[nH]cn1)C2=O (centres unmarked) [Example 51],145.5 to 148
28,CCC1=C(Cc2c[nH]cn2)CCc2ccc(OC)cc21 [Example 54],111.5 to 113.5
29,CCC1=C(Cc2c[nH]cn2)CCc2cc(OC)ccc21 [Example 53],138 to 141.5
